This experiment concerns the target T1, μ-opioid receptor (MOR) (Homo sapiens, UniProt P35372).
T1 construct: expressed in transfected cells; host or cells: CHO-hOR cells (CHO cells expressing the human opioid receptor)
Put plainly: Opioid receptor radio-ligand binding assay (CHO-hOR cells). The following applies: based on Table 1. The procedure: Next, the synthesised peptides were subjected to biological activity testing, to know whether they still bind to the opioid receptor. If so, it is tested to which opioid receptor subtype they bind. It is also investigated whether the opioid peptides behave as agonist or antagonist. The following assays are performed: radio-ligand binding assay, ^35S GTP binding assay, and tissue experiments, including guinea pig ileum (GPI) and mouse vas deferens (MVD) tests.

The values that follow come from patent publication US11397186B2, “Methods for covalently binding a cell surface protein and a ligand” (UNIVERSITEIT GENT, priority 2016, dated 2022).

Non-standard residues stand in square brackets, D forms with d. Residues, ends and D or L forms follow the SMILES beside them. Ala(2-furyl) = N[C@@H](Cc1ccco1)C(=O)O

T1 sequence (P35372 whole entry): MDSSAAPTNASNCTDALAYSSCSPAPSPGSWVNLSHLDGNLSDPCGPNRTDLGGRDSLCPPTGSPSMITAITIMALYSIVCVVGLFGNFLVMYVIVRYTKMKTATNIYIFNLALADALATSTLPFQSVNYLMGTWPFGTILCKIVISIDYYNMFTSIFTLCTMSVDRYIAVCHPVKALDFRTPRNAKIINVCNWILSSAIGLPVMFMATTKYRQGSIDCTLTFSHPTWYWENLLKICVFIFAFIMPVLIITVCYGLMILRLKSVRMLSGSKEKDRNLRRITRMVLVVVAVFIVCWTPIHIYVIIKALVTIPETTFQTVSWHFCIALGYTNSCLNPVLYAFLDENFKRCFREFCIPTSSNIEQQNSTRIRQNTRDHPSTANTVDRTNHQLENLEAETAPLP

Take `N=C(N)NCCC[C@@H](NC(=O)[C@@H](N)Cc1ccc(O)cc1)C(=O)N[C@@H](Cc1ccco1)C(=O)N[C@@H](Cc1ccccc1)C(N)=O` [FUA3] (H-Y[dR][Ala(2-furyl)]F-NH2; N-terminus and C-terminus assumed): the “binding to the opioid receptor, assessment in words” value is on record as “acceptable”.
